One test relates to MKN45 cells. Briefly: MKN45 cell proliferation assay (Cell-Titer-Glo, 120 h). Type of test: cell-based. Conditions: for EC50: Homo sapiens, MKN-45, 120 h, Cell-Titer-Glo, growth inhibition, read-out: MKN45 Cell Prolif. 120 hr (EC50); for MKN45 Cell Prolif. 120 hr (Ymin-Obs): minimal percent of DMSO control observed in the concentrations tested. A digest of the protocol: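 Cells seeded at 400/well onto pre-printed 10-point half-log dilutions (top 1 or 10 uM, 0.1% DMSO final), in triplicate, and grown 120 h at 37 C. Viability by Cell-Titer-Glo luminescence, blank-subtracted and normalised to DMSO; EC50 from four-parameter logistic fit, with observed minimal % of control recorded as Ymin-obs.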

For the next test, the target named is T1, WEE1 (Homo sapiens, UniProt P30291+Q96SW2).
T1 construct: C-terminal ePL-tagged (DiscoverX, Fremont, CA) full-length WEE1 expression construct; expressed in transfected cells; host or cells: LentiX-HEK293T (Invitrogen), lentiviral transduction; co-expressing GSPT1-GN (G576N, lacking the first 158 amino acids)
The experiment in a line: WEE1-ePL degradation assay (LentiX-WEE1-ePL-GSPT1-ND cells, InCELL Hunter luminescence, 4 h). In kind it is cell-based. Conditions: 293T-LentiX WEE1-ePL cells; for 293T-LentiX WEE1-ePL Degradation 4 hr (Ymin): lower limit of the fit (0 = luciferase inhibitor, Ymax = DMSO control); for DC50: read-out: 293T-LentiX WEE1-ePL Degradation 4 hr (EC50). A digest of the protocol:
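Degradation EC50 was fitted by a four-parameter logistic model, with the upper limit taken from DMSO wells. Luminescence was read with InCELL Hunter reagent after 30 min at room temperature, following a 4 h, 37° C exposure of 2500 cells/well. Cells were LentiX-HEK293T carrying ePL-tagged full-length WEE1, dosed in 10 points (3-fold) from 1 or 10 uM.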

In general, EC50 refers to the concentration that produces a half-maximal response.

Consider `CC1(C)C[C@@H](c2ncc3cc(CN4CC[C@H](Oc5ccc6c(c5)CN(C5CCC(=O)NC5=O)C6=O)C4)ccc3n2)CCO1` (stereo partly drawn) [3-(5-{[(3S)-1-({2-[(4S)-2,2-dimethyloxan-4-yl]quinazolin-6-yl}methyl)pyrrolidin-3-yl]oxy}-1-oxo-2,3-dihydro-1H-isoindol-2-yl)piperidine-2,6-dione], for which, in the test with MKN45 cells, the 50% effective concentration (EC50) came out at 9.52 nM and the “MKN45 Cell Prolif. 120 hr (Ymin-Obs)” value worked out at 8.354. On WEE1, the “293T-LentiX WEE1-ePL Degradation 4 hr (Ymin)” value was 31 and the DC50 was determined as 43.4 nM.

Regarding `CC1(C)COCC[C@@H]1c1ccc2cc(CN3CC[C@H](Oc4ccc5c(c4)CN(C4CCC(=O)NC4=O)C5=O)C3)ccc2n1` (stereo partly drawn) [3-(5-{[(3S)-1-({2-[(4S)-3,3-dimethyloxan-4-yl]quinolin-6-yl}methyl)pyrrolidin-3-yl]oxy}-1-oxo-2,3-dihydro-1H-isoindol-2-yl)piperidine-2,6-dione], in the test on MKN45 cells, the EC50 worked out at 1.7 nM and the “MKN45 Cell Prolif. 120 hr (Ymin-Obs)” value stood at 6.945. Also, on WEE1, the “293T-LentiX WEE1-ePL Degradation 4 hr (Ymin)” value is given as 34 and the DC50 stood at 1.78 nM.

Turning to `O=C1CCC(N2Cc3cc(O[C@H]4CCN(Cc5ccc6nc(N7CC[C@@]78CCOC8)ncc6c5)C4)ccc3C2=O)C(=O)N1` (stereo partly drawn) [3-(5-{[(3S)-1-({2-[(4S)-6-oxa-1-azaspiro[3.4]octan-1-yl]quinazolin-6-yl}methyl)pyrrolidin-3-yl]oxy}-1-oxo-2,3-dihydro-1H-isoindol-2-yl)piperidine-2,6-dione], in the test with MKN45 cells, the EC50 worked out at 13.3 nM and the “MKN45 Cell Prolif. 120 hr (Ymin-Obs)” value is 12.16. In addition, on WEE1, the “293T-LentiX WEE1-ePL Degradation 4 hr (Ymin)” value is 34.39 and the DC50 came out at 14.6 nM.

Take `O=C1CCC(N2Cc3cc(O[C@H]4CCN(Cc5ccc6nc(N7CC[C@@]78CCOC8)ccc6c5)C4)ccc3C2=O)C(=O)N1` (stereo partly drawn) [3-(5-{[(3S)-1-({2-[(4S)-6-oxa-1-azaspiro[3.4]octan-1-yl]quinolin-6-yl}methyl)pyrrolidin-3-yl]oxy}-1-oxo-2,3-dihydro-1H-isoindol-2-yl)piperidine-2,6-dione]: in the test on MKN45 cells, the EC50 came out at 6.53 nM and the “MKN45 Cell Prolif. 120 hr (Ymin-Obs)” value turned out to be 7.225. Further, at WEE1, the “293T-LentiX WEE1-ePL Degradation 4 hr (Ymin)” value was determined as 40 and the DC50 stood at 6.07 nM.

Turning to `O=C1CCC(N2Cc3cc(O[C@H]4CCN(Cc5ccc6nc(N7CCC[C@]78CCOC8)ncc6c5)C4)ccc3C2=O)C(=O)N1` (stereo partly drawn) [3-(5-{[(3S)-1-({2-[(5R)-7-oxa-1-azaspiro[4.4]nonan-1-yl]quinazolin-6-yl}methyl)pyrrolidin-3-yl]oxy}-1-oxo-2,3-dihydro-1H-isoindol-2-yl)piperidine-2,6-dione], in the test with MKN45 cells, the EC50 was 6.61 nM and the “MKN45 Cell Prolif. 120 hr (Ymin-Obs)” value was determined as 6.57. On WEE1, the “293T-LentiX WEE1-ePL Degradation 4 hr (Ymin)” value is 32.5 and the DC50 stood at 12.3 nM.

As to `O=C1CCC(N2Cc3cc(O[C@H]4CCN(Cc5ccc6nc(N7CCC[C@]78CCOC8)ccc6c5)C4)ccc3C2=O)C(=O)N1` (stereo partly drawn) [3-(5-{[(3S)-1-({2-[(5R)-7-oxa-1-azaspiro[4.4]nonan-1-yl]quinolin-6-yl}methyl)pyrrolidin-3-yl]oxy}-1-oxo-2,3-dihydro-1H-isoindol-2-yl)piperidine-2,6-dione], in the test on MKN45 cells, the EC50 was determined as 10.9 nM and the “MKN45 Cell Prolif. 120 hr (Ymin-Obs)” value is 17.85. Further, at WEE1, the “293T-LentiX WEE1-ePL Degradation 4 hr (Ymin)” value was determined as 46 and the DC50 was found to be 6.81 nM.

Consider `O=C1CCC(N2Cc3cc(O[C@H]4CCN(Cc5ccc6nc(N7CCC[C@@]78CCOC8)ncc6c5)C4)ccc3C2=O)C(=O)N1` (stereo partly drawn) [3-(5-{[(3S)-1-({2-[(5S)-7-oxa-1-azaspiro[4.4]nonan-1-yl]quinazolin-6-yl}methyl)pyrrolidin-3-yl]oxy}-1-oxo-2,3-dihydro-1H-isoindol-2-yl)piperidine-2,6-dione], for which, in the test with MKN45 cells, the EC50 was 9.38 nM and the “MKN45 Cell Prolif. 120 hr (Ymin-Obs)” value worked out at 9.64. Moreover, on WEE1, the “293T-LentiX WEE1-ePL Degradation 4 hr (Ymin)” value worked out at 34.08 and the DC50 was 12.6 nM.

On to `O=C1CCC(N2Cc3cc(O[C@H]4CCN(Cc5ccc6nc(N7CCC[C@@]78CCOC8)ccc6c5)C4)ccc3C2=O)C(=O)N1` (stereo partly drawn) [3-(5-{[(3S)-1-({2-[(5S)-7-oxa-1-azaspiro[4.4]nonan-1-yl]quinolin-6-yl}methyl)pyrrolidin-3-yl]oxy}-1-oxo-2,3-dihydro-1H-isoindol-2-yl)piperidine-2,6-dione], for which, in the test with MKN45 cells, the EC50 was determined as 10.1 nM and the “MKN45 Cell Prolif. 120 hr (Ymin-Obs)” value was 26.44. In addition, at WEE1, the “293T-LentiX WEE1-ePL Degradation 4 hr (Ymin)” value stood at 47 and the DC50 is 3.66 nM.

For `O=C1CCC(N2Cc3cc(O[C@H]4CCN(Cc5ccc6nc(NC7CCOCC7)ccc6c5)C4)ccc3C2=O)C(=O)N1` (stereo partly drawn) [3-(5-{[(3S)-1-({2-[(oxan-4-yl)amino]quinolin-6-yl}methyl)pyrrolidin-3-yl]oxy}-1-oxo-2,3-dihydro-1H-isoindol-2-yl)piperidine-2,6-dione], in the test with MKN45 cells, the concentration for a half-maximal effect (EC50) came out at 4.27 nM and the “MKN45 Cell Prolif. 120 hr (Ymin-Obs)” value is 7.78. Also, at WEE1, the “293T-LentiX WEE1-ePL Degradation 4 hr (Ymin)” value came out at 37 and the DC50 came out at 10.6 nM.

With `O=C1CCC(N2Cc3cc(O[C@H]4CCN(Cc5ccc6nc(COC7CCOCC7)ccc6c5)C4)ccc3C2=O)C(=O)N1` (stereo partly drawn) [3-(5-{[(3S)-1-({2-[(oxan-4-yloxy)methyl]quinolin-6-yl}methyl)pyrrolidin-3-yl]oxy}-1-oxo-2,3-dihydro-1H-isoindol-2-yl)piperidine-2,6-dione], in the test with MKN45 cells, the EC50 was determined as 2.19 nM and the “MKN45 Cell Prolif. 120 hr (Ymin-Obs)” value is 7.295. Further, on WEE1, the “293T-LentiX WEE1-ePL Degradation 4 hr (Ymin)” value came to 33 and the DC50 was found to be 4.73 nM.

On to `O=C1CCC(N2Cc3cc(O[C@H]4CCN(Cc5ccc6nc(COC7COC7)ccc6c5)C4)ccc3C2=O)C(=O)N1` (stereo partly drawn) [3-(5-{[(3S)-1-({2-[(oxetan-3-yloxy)methyl]quinolin-6-yl}methyl)pyrrolidin-3-yl]oxy}-1-oxo-2,3-dihydro-1H-isoindol-2-yl)piperidine-2,6-dione], for which, in the test on MKN45 cells, the EC50 worked out at 5.37 nM and the “MKN45 Cell Prolif. 120 hr (Ymin-Obs)” value came out at 9.252. In addition, on WEE1, the “293T-LentiX WEE1-ePL Degradation 4 hr (Ymin)” value is given as 23.84 and the DC50 was 122 nM.

Take `CN(c1ccc2cc(CN3CC[C@H](Oc4ccc5c(c4)CN(C4CCC(=O)NC4=O)C5=O)C3)ccc2n1)C1CCOCC1` (stereo partly drawn) [3-(5-{[(3S)-1-({2-[methyl(oxan-4-yl)amino]quinolin-6-yl}methyl)pyrrolidin-3-yl]oxy}1-oxo-2,3-dihydro-1H-isoindol-2-yl)piperidine-2,6-dione]: in the test on MKN45 cells, the EC50 turned out to be 3.5 nM and the “MKN45 Cell Prolif. 120 hr (Ymin-Obs)” value was found to be 8.45. On WEE1, the “293T-LentiX WEE1-ePL Degradation 4 hr (Ymin)” value turned out to be 32 and the DC50 was determined as 1.82 nM.

With `O=C1CCC(N2Cc3cc(O[C@H]4CCN(Cc5cnc6c(c5)CCO6)C4)ccc3C2=O)C(=O)N1` (stereo partly drawn) [3-(5-{[(3S)-1-({2H,3H-furo[2,3-b]pyridin-5-yl}methyl)pyrrolidin-3-yl]oxy}-1-oxo-2,3-dihydro-1H-isoindol-2-yl)piperidine-2,6-dione], in the test on MKN45 cells, the EC50 was 2040 nM and the “MKN45 Cell Prolif. 120 hr (Ymin-Obs)” value was 40.58. At WEE1, the “293T-LentiX WEE1-ePL Degradation 4 hr (Ymin)” value amounted to 42 and the DC50 worked out at 60.1 nM.

As to `O=C1CCC(N2Cc3cc(O[C@H]4CCN(Cc5cc6c(cn5)OCC6)C4)ccc3C2=O)C(=O)N1` (stereo partly drawn) [3-(5-{[(3S)-1-({2H,3H-furo[2,3-c]pyridin-5-yl}methyl)pyrrolidin-3-yl]oxy}-1-oxo-2,3-dihydro-1H-isoindol-2-yl)piperidine-2,6-dione], in the test with MKN45 cells, the EC50 came out at 751 nM and the “MKN45 Cell Prolif. 120 hr (Ymin-Obs)” value is reported as 25.455. Further, at WEE1, the “293T-LentiX WEE1-ePL Degradation 4 hr (Ymin)” value is 34 and the DC50 stood at 20.8 nM.

Values taken from patent publication US20240067632A1, “WEE1 Degrading Compounds and Uses Thereof” (Bristol-Myers Squibb Company, priority 2022, published 2024).
